Data taken from the supplement of paper PMC11061612.

Key:
[1] = compound: Cc1cc2ncnn2cc1Nc1ncc2c(n1)n(C1CCOCC1)c(=O)n2C [AZD7648]; settings: max 10 µM
Summary of the method: (§1)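 Viability was measured with CellTiter-Glo 2.0 luminescence after 72 hours of dosing at a final DMSO of typically 0.2%, and scaled between blank-well and DMSO-well means. Beforehand, cancer cell lines sat 24 hours at 37°C and 5% CO2 in 1536-well plates in 7.5 μl DMEM/F12 or RPMI with 10% FBS. A non-linear mixed effects model fitted two-parameter logistic curves to the dose responses. The single-agent IC50 comes from these fits.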

[2] = compound: C1CN(CCC1(C(=O)N[C@@H](CCO)C2=CC=C(C=C2)Cl)N)C3=NC=NC4=C3C=CN4 [AZD5363]; settings: max 10 µM
Summary of the method: as §1

[3] = compound: CCN(CCO)CCCOc1ccc2c(Nc3cc(CC(=O)Nc4cccc(F)c4)[nH]n3)ncnc2c1 [AZD2811]; settings: max 1 µM
Summary of the method: as §1

[4] = compound: C[C@@H](Nc1cc(F)cc(F)c1)c1cc(C(=O)N(C)C)cc2c(=O)cc(N3CCOCC3)oc12 [AZD8186]; settings: max 10 µM
Summary of the method: as §1

[5] = compound: N#Cc1cnc(Nc2cc(NC[C@H]3CNCCO3)c(C(F)(F)F)cn2)cn1 [SRA737]; settings: max 10 µM
Summary of the method: as §1

[6] = compound: CN(C)CCCOc1ccc(-c2ccc3ncc4c(c3c2)n(C2CCOCC2)c(=O)n4C)cn1 [AZD0156]; settings: max 3 µM
Summary of the method: as §1

[7] = compound: COc1nnc2ccc(N3CCC(c4ccc(OCCN5CCN(C)C(=O)[C@H]5C)cc4)CC3)nn12 [AZD5153]; settings: max 1 µM
Summary of the method: as §1

[8] = compound: CN(CC[C@H](CSC1=CC=CC=C1)NC2=C(C=C(C=C2)S(=O)(=O)NC(=O)C3=CC=C(C=C3)N4CCC(CC4)[C@H](C5=CC=CC=C5C6=CC=C(C=C6)Cl)O)S(=O)(=O)C(F)(F)F)CCO [AZD4320]; settings: max 1 µM
Summary of the method: as §1

[9] = compound: COc1cc([C@@H]2c3cc4c(cc3[C@@H](O[C@@H]3O[C@@H]5CO[C@@H](C)O[C@H]5[C@H](O)[C@H]3O)[C@H]3COC(=O)[C@H]23)OCO4)cc(OC)c1O [Etoposide]; settings: max 10 µM
Summary of the method: as §1

[10] = compound: COc1cc2ncnc(Nc3ccc(F)c(Cl)c3)c2cc1OCCCN1CCOCC1 [Gefitinib]; settings: max 10 µM
Summary of the method: as §1

[11] = compound: O=c1[nH]cc(F)c(=O)[nH]1 [5-Fluorouracil]; settings: max 20 µM
Summary of the method: as §1

[12] = compound: COc1cccc(OCCCN)c1-c1cc(Nc2cnc(C#N)cn2)n[nH]1 [Prexasertib]; settings: max 1 µM
Summary of the method: as §1

[13] = compound: O=C(c1cc(Cc2n[nH]c(=O)c3ccccc23)ccc1F)N1CCN(C(=O)C2CC2)CC1 [Olaparib]; settings: max 10 µM
Summary of the method: as §1

[14] = compound: CCc1c2c(nc3ccc(O)cc13)-c1cc3c(c(=O)n1C2)COC(=O)[C@]3(O)CC [SN-38]; settings: max 0.3 µM
Summary of the method: as §1

[15] = compound: CC(=O)Nc1cccc(-n2c(=O)n(C3CC3)c(=O)c3c(Nc4ccc(I)cc4F)n(C)c(=O)c(C)c32)c1 [Trametinib]; settings: max 1 µM
Summary of the method: as §1

[16] = compound: Nc1ccn([C@@H]2O[C@H](CO)[C@@H](O)C2(F)F)c(=O)n1 [Gemcitabine]; settings: max 0.3 µM
Summary of the method: as §1

[17] = compound: Cc1nc(-c2cn3c(n2)-c2ccc(-c4cnn(C(C)(C)C(N)=O)c4)cc2OCC3)n(C(C)C)n1 [Taselisib]; settings: max 10 µM
Summary of the method: as §1

[18] = compound: C[C@@H](c1ccc2nccn2c1)n1nnc2ncc(-c3cnn(C)c3)nc21 [Savolitinib]; settings: max 1 µM
Summary of the method: as §1

[19] = compound: Cc1c2c(nn1C)CSCc1cc(n(C)n1)CSc1cc(c3ccccc3c1)OCCCc1c(C(=O)O)n(C)c3c-2c(Cl)ccc13 [AZD5991]; settings: max 1 µM
Summary of the method: as §1

[20] = compound: CS(=O)(=O)CCNCc1ccc(-c2ccc3ncnc(Nc4ccc(OCc5cccc(F)c5)c(Cl)c4)c3c2)o1 [Lapatinib]; settings: max 10 µM
Summary of the method: as §1

[21] = compound: CC(=O)c1c(C)c2cnc(Nc3ccc(N4CCNCC4)cn3)nc2n(C2CCCC2)c1=O [Palbociclib]; settings: max 10 µM
Summary of the method: as §1

[22] = compound: NC1(c2ccc(-c3nc4ccn5c(=O)[nH]nc5c4cc3-c3ccccc3)cc2)CCC1 [MK-2206]; settings: max 10 µM
Summary of the method: as §1

[23] = compound: CC(=O)O[C@H]1C(=O)[C@@]2(C)[C@H]([C@H](OC(=O)c3ccccc3)[C@]3(O)C[C@H](OC(=O)[C@H](O)[C@@H](NC(=O)c4ccccc4)c4ccccc4)C(C)=C1C3(C)C)[C@]1(OC(C)=O)CO[C@@H]1C[C@@H]2O [Paclitaxel]; settings: max 3 µM
Summary of the method: as §1

[24] = compound: C[C@@H]1COCCN1C2=NC(=NC(=C2)C3(CC3)[S@](=N)(=O)C)C4=C5C=CNC5=NC=C4 [AZD6738]; settings: max 10 µM
Summary of the method: as §1

[25] = compound: CC1=C(C(=CC=C1)Cl)NC(=O)C2=CN=C(S2)NC3=CC(=NC(=N3)C)N4CCN(CC4)CCO [Dasatinib]; settings: max 2 µM
Summary of the method: as §1

[26] = compound: CC1(C)CCC(CN2CCN(c3ccc(C(=O)NS(=O)(=O)c4ccc(NCC5CCOCC5)c([N+](=O)[O-])c4)c(Oc4cnc5[nH]ccc5c4)c3)CC2)=C(c2ccc(Cl)cc2)C1 [Venetoclax]; settings: max 1 µM
Summary of the method: as §1

[27] = compound: O=C(Nc1ccc2[nH]nc(-c3ccncc3)c2c1)[C@@H]1CCN(CC(=O)N2CCN(c3ccc(-c4ncccn4)cc3)CC2)C1; settings: max 5 µM
Summary of the method: as §1

[28] = compound: COc1cccc2c1C(=O)c1c(O)c3c(c(O)c1C2=O)C[C@@](O)(C(=O)CO)C[C@@H]3O[C@H]1C[C@H](N)[C@H](O)[C@H](C)O1 [Doxorubicin]; settings: max 1 µM
Summary of the method: as §1

[29] = compound: C[C@@H](Oc1cc(-c2cnn(C3CCNCC3)c2)cnc1N)c1c(Cl)ccc(F)c1Cl [Crizotinib]; settings: max 10 µM
Summary of the method: as §1

[30] = compound: CC(C)n1c(=O)n(C)c2cnc3cc(F)c(-c4ccc(OCCCN5CCCCC5)nc4)cc3c21 [AZD1390]; settings: max 0.3 µM
Summary of the method: as §1

[31] = compound: C=CCn1c(=O)c2cnc(Nc3ccc(N4CCN(C)CC4)cc3)nc2n1-c1cccc(C(C)(C)O)n1 [AZD1775]; settings: max 3 µM
Summary of the method: as §1

[32] = compound: Cn1cnc2c(F)c(Nc3ccc(Br)cc3Cl)c(C(=O)NOCCO)cc21 [Selumetinib]; settings: max 10 µM
Summary of the method: as §1

[33] = compound: CC1=CN2[C@@H](C1)C=NC3=CC(=C(C=C3C2=O)OC)OCCCCCOC4=C(C=C5C(=C4)N=C[C@@H]6CC(=CN6C5=O)C)OC [SG3199]; settings: max 0.001 µM
Summary of the method: as §1

[34] = compound: C1CC(C1)(C(=O)[O-])C(=O)[O-].N.N.[Pt+2] [Carboplatin]; settings: max 10 µM
Summary of the method: as §1

[35] = compound: COc1cc(Nc2ncc3c(n2)-c2ccc(Cl)cc2C(c2c(F)cccc2OC)=NC3)ccc1C(=O)O [Alisertib]; settings: max 10 µM
Summary of the method: as §1

Row | Cell Line | IC50, cell viability 72 h [1] | IC50, cell viability 72 h [2] | IC50, cell viability 72 h [3] | IC50, cell viability 72 h [4] | IC50, cell viability 72 h [5] | IC50, cell viability 72 h [6] | IC50, cell viability 72 h [7] | IC50, cell viability 72 h [8] | IC50, cell viability 72 h [9] | IC50, cell viability 72 h [10] | IC50, cell viability 72 h [11] | IC50, cell viability 72 h [12] | IC50, cell viability 72 h [13] | IC50, cell viability 72 h [14] | IC50, cell viability 72 h [15] | IC50, cell viability 72 h [16] | IC50, cell viability 72 h [17] | IC50, cell viability 72 h [18] | IC50, cell viability 72 h [19] | IC50, cell viability 72 h [20] | IC50, cell viability 72 h [21] | IC50, cell viability 72 h [22] | IC50, cell viability 72 h [23] | IC50, cell viability 72 h [24] | IC50, cell viability 72 h [25] | IC50, cell viability 72 h [26] | IC50, cell viability 72 h [27] | IC50, cell viability 72 h [28] | IC50, cell viability 72 h [29] | IC50, cell viability 72 h [30] | IC50, cell viability 72 h [31] | IC50, cell viability 72 h [32] | IC50, cell viability 72 h [33] | IC50, cell viability 72 h [34] | IC50, cell viability 72 h [35]
1 | RCM-1 (Colorectal Carcinoma) | > 10 µM | > 10 µM | > 1 µM | > 10 µM | > 10 µM | > 3 µM | 0.506 µM | > 1 µM | > 10 µM | > 10 µM | > 20 µM | 0.0232 µM | > 10 µM | 0.0354 µM | 0.0318 µM | > 0.3 µM | 9.94 µM | > 1 µM | > 1 µM | > 10 µM | > 10 µM | > 10 µM | > 3 µM | 2.61 µM | > 2 µM | > 1 µM | 2.15 µM | > 1 µM | > 10 µM | > 0.3 µM | 1.79 µM | 2.57 µM | > 0.001 µM | > 10 µM | > 10 µM
2 | REH (B-Lymphoblastic Leukemia) | > 10 µM | > 10 µM | 0.218 µM | 9.64 µM | > 10 µM | > 3 µM | 0.834 µM | 0.0564 µM | 0.834 µM | > 10 µM | > 20 µM | 0.0248 µM | > 10 µM | 0.00421 µM | > 1 µM | 0.0156 µM | 3.31 µM | > 1 µM | 0.723 µM | > 10 µM | 6.85 µM | 4.58 µM | 0.00544 µM | 5.79 µM | > 2 µM | 0.211 µM | > 5 µM | 0.0949 µM | 4.21 µM | > 0.3 µM | 0.727 µM | > 10 µM | > 0.001 µM | > 10 µM | 1.62 µM
3 | RKN (Other Solid Carcinomas) | > 10 µM | > 10 µM | > 1 µM | > 10 µM | > 10 µM | > 3 µM | > 1 µM | > 1 µM | > 10 µM | > 10 µM | > 20 µM | 0.267 µM | > 10 µM | > 0.3 µM | > 1 µM | > 0.3 µM | > 10 µM | > 1 µM | > 1 µM | > 10 µM | > 10 µM | > 10 µM | 0.0408 µM | > 10 µM | 1.74 µM | > 1 µM | > 5 µM | > 1 µM | > 10 µM | > 0.3 µM | 2.3 µM | > 10 µM | > 0.001 µM | > 10 µM | > 10 µM
4 | SF539 (Glioblastoma) | > 10 µM | 3.27 µM | > 1 µM | > 10 µM | 1.93 µM | > 3 µM | 0.37 µM | > 1 µM | 2.14 µM | > 10 µM | 14.5 µM | 0.00882 µM | > 10 µM | 0.0189 µM | > 1 µM | 0.0239 µM | 3.75 µM | > 1 µM | > 1 µM | > 10 µM | > 10 µM | 9.37 µM | 0.00753 µM | 2.05 µM | 1.63 µM | > 1 µM | 3.22 µM | 0.351 µM | 9.82 µM | > 0.3 µM | 0.185 µM | > 10 µM | > 0.001 µM | > 10 µM | 4.93 µM
5 | SHP-77 (Small Cell Lung Carcinoma) | > 10 µM | > 10 µM | > 1 µM | > 10 µM | > 10 µM | > 3 µM | > 1 µM | > 1 µM | > 10 µM | > 10 µM | 14.8 µM | 0.102 µM | > 10 µM | > 0.3 µM | > 1 µM | 0.169 µM | > 10 µM | > 1 µM | > 1 µM | > 10 µM | > 10 µM | > 10 µM | 0.0763 µM | > 10 µM | > 2 µM | > 1 µM | > 5 µM | > 1 µM | > 10 µM | > 0.3 µM | 1.8 µM | > 10 µM | > 0.001 µM | > 10 µM | > 10 µM
